Paper PMC11638952, “Fine-Tuning the Function of Farnesene Synthases for Selective Synthesis of Farnesene Stereoisomers” (Journal of Agricultural and Food Chemistry, 2024)

How the values were obtained:
Details in all cases: 50 mM Tris-HCl pH 8.0, 10 μM MgCl2, 30 °C, 10 min, FPP 2-80 μM
AaFS [1] = target: T1, AaFS (Artemisia annua, UniProt Q9FXY7)
T1 construct: gene CASC125
Source text: (§1) steady-state kinetics, product quantified by peak area after hexane extraction on AaFS

AaFS [2] = target: T2, AaFS (Artemisia annua, UniProt Q9FXY7, L326I, form not given)
T2 construct: gene CASC125
Source text: as §1

AaFS [3] = target: T3, AaFS (Artemisia annua, UniProt Q9FXY7, M436I, form not given)
T3 construct: gene CASC125
Source text: as §1

AaFS [4] = target: T4, AaFS (Artemisia annua, UniProt Q9FXY7, W299C, form not given)
T4 construct: gene CASC125
Source text: as §1

T4 sequence (Q9FXY7 whole entry W299C, form open): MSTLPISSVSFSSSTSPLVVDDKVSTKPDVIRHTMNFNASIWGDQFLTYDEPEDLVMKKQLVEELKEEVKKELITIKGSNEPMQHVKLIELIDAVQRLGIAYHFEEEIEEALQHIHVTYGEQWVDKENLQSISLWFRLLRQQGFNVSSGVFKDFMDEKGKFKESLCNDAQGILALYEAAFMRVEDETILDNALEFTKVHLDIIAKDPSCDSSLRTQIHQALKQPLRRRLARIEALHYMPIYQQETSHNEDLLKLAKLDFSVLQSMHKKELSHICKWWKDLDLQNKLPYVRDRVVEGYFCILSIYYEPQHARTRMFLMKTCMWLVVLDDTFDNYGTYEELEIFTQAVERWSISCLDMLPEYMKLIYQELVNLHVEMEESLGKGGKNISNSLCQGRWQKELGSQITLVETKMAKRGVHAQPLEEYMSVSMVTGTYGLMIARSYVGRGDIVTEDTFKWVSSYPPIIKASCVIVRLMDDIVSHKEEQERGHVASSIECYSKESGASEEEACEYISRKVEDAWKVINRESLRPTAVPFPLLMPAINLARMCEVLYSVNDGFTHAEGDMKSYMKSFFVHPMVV
T2 sequence (Q9FXY7 whole entry L326I, form open): as the sequence (Q9FXY7 whole entry W299C, form open) above, with C299W, L326I counted along it
T3 sequence (Q9FXY7 whole entry M436I, form open): as the sequence (Q9FXY7 whole entry W299C, form open) above, with C299W, M436I counted along it
T1 sequence (Q9FXY7 whole entry): as the sequence (Q9FXY7 whole entry W299C, form open) above, with C299W counted along it

`CC(C)=CCC/C(C)=C/CC/C(C)=C/CO[P@@](=O)(O)OP(=O)(O)O` (stereo in doubt) [FPP, farnesyl pyrophosphate] showed a Km (AaFS [1]) of 14.3 ± 2.3 µM, a Km (AaFS [2]) of 6.75 ± 3.7 µM and a Km (AaFS [3]) of 7.64 ± 4.8 µM. The Km (AaFS [4]) was 21.3 ± 1.8 µM.
